Assay results: patent publication US11344554B2, “Animal and human anti-malarial agents” (Celgene Corporation, priority 2016, dated 2022)
Read-outs that look alike come from different tables or passages of the source.

Tested on: Plasmodium falciparum
Assay: Plasmodium falciparum in vitro [3H]-hypoxanthine parasite growth inhibition assay
Type: cell-based
Settings: Erythrocyte, read-out: Act Class (IC50 activity level)
[1] = P. falciparum asexual blood stage parasites in human erythrocytes, [3H]-hypoxanthine uptake

| SMILES | IC50 [1] | IC50 |
| --- | --- | --- |
| CC(C)Nc1ncc2nc(Nc3ccc(C(F)(F)F)c(Cl)c3)n(C3CCNCC3)c2n1 [Cpd 91, N8-(3-chloro-4-(trifluoromethyl)phenyl)-N2-isopropyl-9-(piperidin-4-yl)-9H-purine-2,8-diamine] | 200 to 500 nM | – |
| CC(C)(C)Nc1ncc2nc(Nc3cncc(Cl)c3)n(C3CCNCC3)c2n1 [Cpd 30, N2-tert-butyl-N8-(5-chloropyridin-3-yl)-9-(piperidin-4-yl)-9H-purine-2,8-diamine] | 500 to 1200 nM | – |
| CC(C)(C)Nc1ncc2nc(Nc3cccc(C(F)(F)F)c3)n(CCCN)c2n1 [Cpd 11, 9-(3-aminopropyl)-N2-tert-butyl-N8-(3-(trifluoromethyl)phenyl)-9H-purine-2,8-diamine] | 200 to 500 nM | – |
| CC(C)(C)Nc1ncc2nc(Nc3cccc(C(F)F)c3)n(C3CCNCC3)c2n1 [Cpd 33, N2-tert-butyl-N8-(3-(difluoromethyl)phenyl)-9-(piperidin-4-yl)-9H-purine-2,8-diamine] | 200 to 500 nM | – |
| CC1(Nc2ncc3nc(Nc4cccc(C(F)F)c4)n(C4CCNCC4)c3n2)CCOCC1 [Cpd 57, N8-(3-(difluoromethyl)phenyl)-N2-(4-methyltetrahydro-2H-pyran-4-yl)-9-(piperidin-4-yl)-9H-purine-2,8-diamine] | 500 to 1200 nM | – |
| Clc1cc(Cl)cc(Nc2nc3cnc(NC4CC4)nc3n2C2CCNCC2)c1 [Cpd 34, N2-cyclopropyl-N8-(3,5-dichlorophenyl)-9-(piperidin-4-yl)-9H-purine-2,8-diamine] | 200 to 500 nM | – |
| CC(C)(C)Nc1ncc2nc(Nc3cc(Cl)cc(C(F)(F)F)c3)n(CC3CCNC3)c2n1 (centres unmarked) [Cpd 98, N2-tert-butyl-N8-(3-chloro-5-(trifluoromethyl)phenyl)-9-(pyrrolidin-3-ylmethyl)-9H-purine-2,8-diamine] | – | 200 to 500 nM |
| CC1(Nc2ncc3nc(Nc4ccc(Cl)c(C(F)(F)F)c4)n(C4CCNCC4)c3n2)CC1 [Cpd 89, N8-(4-chloro-3-(trifluoromethyl)phenyl)-N2-(1-methylcyclopropyl)-9-(piperidin-4-yl)-9H-purine-2,8-diamine] | 200 to 500 nM | – |
| FC(F)(F)c1cc(Nc2nc3cnc(NC4CC4)nc3n2C2CCNCC2)ccc1Cl [Cpd 80, N8-(4-chloro-3-(trifluoromethyl)phenyl)-N2-cyclopropyl-9-(piperidin-4-yl)-9H-purine-2,8-diamine] | 200 to 500 nM | – |
| CC1(Nc2ncc3nc(Nc4cccc(C(F)(F)F)c4)n(CCC4CCNC4)c3n2)CCOCC1 (centres unmarked) [Cpd 58, N2-(4-methyltetrahydro-2H-pyran-4-yl)-9-(2-(pyrrolidin-3-yl)ethyl)-N8-(3-(trifluoromethyl)phenyl)-9H-purine-2,8-diamine] | 200 to 500 nM | – |
| CC(C)(C)Nc1ncc2nc(Nc3cccc(Cl)c3)n(CCn3ccnc3)c2n1 [Cpd 1, 9-(2-(1H-imidazol-1-yl)ethyl)-N2-tert-butyl-N8-(3-chlorophenyl)-9H-purine-2,8-diamine] | 200 to 500 nM | – |
| CC(C)(C)Nc1ncc2nc(Nc3cccc(C(F)(F)F)c3)n(CC3CCNC3)c2n1 (centres unmarked) [Cpd 24, N2-tert-butyl-9-(pyrrolidin-3-ylmethyl)-N8-(3-(trifluoromethyl)phenyl)-9H-purine-2,8-diamine] | 200 to 500 nM | – |
| CC(C)(C)Nc1ncc2nc(Nc3cccc(C(F)(F)F)c3)n(CCC3CCCN3)c2n1 (centres unmarked) [Cpd 19, N2-tert-butyl-9-(2-(pyrrolidin-2-yl)ethyl)-N8-(3-(trifluoromethyl)phenyl)-9H-purine-2,8-diamine] | 200 to 500 nM | – |
| CC(C)(C)Nc1ncc2nc(Nc3cc(Cl)cc(Cl)c3)n(C3CCN(CCN)CC3)c2n1 [Cpd 35, 9-(1-(2-aminoethyl)piperidin-4-yl)-N2-tert-butyl-N8-(3,5-dichlorophenyl)-9H-purine-2,8-diamine] | 200 to 500 nM | – |
| FC(F)(F)c1cc(Nc2nc3cnc(NC4CCC4)nc3n2C2CCNCC2)cc(C(F)(F)F)c1 [Cpd 86, N8-(3,5-bis(trifluoromethyl)phenyl)-N2-cyclobutyl-9-(piperidin-4-yl)-9H-purine-2,8-diamine] | 100 to 200 nM | – |
| FC(F)(F)c1ccc(Nc2nc3cnc(NC4CC4)nc3n2C2CCNCC2)cc1Cl [Cpd 81, N8-(3-chloro-4-(trifluoromethyl)phenyl)-N2-cyclopropyl-9-(piperidin-4-yl)-9H-purine-2,8-diamine] | 200 to 500 nM | – |
| CC(C)(C)Nc1ncc2nc(Nc3cc(Cl)cc(C(F)(F)F)c3)n(C3CCN(CCN)C3)c2n1 (centres unmarked) [Cpd 60, 9-(1-(2-aminoethyl)pyrrolidin-3-yl)-N2-tert-butyl-N8-(3-chloro-5-(trifluoromethyl)phenyl)-9H-purine-2,8-diamine] | 200 to 500 nM | – |
| CC(C)Nc1ncc2nc(Nc3cccc(C(F)(F)F)c3)n(C3CCNCC3)c2n1 [Cpd 66, N2-isopropyl-9-(piperidin-4-yl)-N8-(3-(trifluoromethyl)phenyl)-9H-purine-2,8-diamine] | 100 to 200 nM | – |
| CC(C)(C)Nc1ncc2nc(Nc3cccc(C(F)(F)F)c3)n(CCC3CCNC3)c2n1 (centres unmarked) [Cpd 18, N2-tert-butyl-9-(2-(pyrrolidin-3-yl)ethyl)-N8-(3-(trifluoromethyl)phenyl)-9H-purine-2,8-diamine] | 100 to 200 nM | – |

Further lines, with some results ahead:

| IC50 [1] | SMILES | IC50 |
| --- | --- | --- |
| < 100 nM | CC(C)(C)Nc1ncc2nc(Nc3cccc(OC(F)(F)F)c3)n(C3CCNCC3)c2n1 [Cpd 29, N2-tert-butyl-9-(piperidin-4-yl)-N8-(3-(trifluoromethoxy)phenyl)-9H-purine-2,8-diamine] | – |
| < 100 nM | CC1(Nc2ncc3nc(Nc4cc(Cl)cc(C(F)(F)F)c4)n(C4CCNCC4)c3n2)CCOCC1 [Cpd 54, N8-(3-chloro-5-(trifluoromethyl)phenyl)-N2-(4-methyltetrahydro-2H-pyran-4-yl)-9-(piperidin-4-yl)-9H-purine-2,8-diamine] | – |
| 100 to 200 nM | FC(F)(F)c1cc(Nc2nc3cnc(NC4CCCC4)nc3n2C2CCNCC2)ccc1Cl [Cpd 87, N8-(4-chloro-3-(trifluoromethyl)phenyl)-N2-cyclopentyl-9-(piperidin-4-yl)-9H-purine-2,8-diamine] | – |
| < 100 nM | CC1(Nc2ncc3nc(Nc4cccc(C(F)(F)F)c4)n(C4CCNCC4)c3n2)CCCC1 [Cpd 59, N2-(1-methylcyclopentyl)-9-(piperidin-4-yl)-N8-(3-(trifluoromethyl)phenyl)-9H-purine-2,8-diamine] | – |
| < 100 nM | CC(C)(C)Nc1ncc2nc(Nc3ccc(Cl)c(Cl)c3)n(C3CCNCC3)c2n1 [Cpd 6, N2-tert-butyl-N8-(3,4-dichlorophenyl)-9-(piperidin-4-yl)-9H-purine-2,8-diamine] | – |
| 100 to 200 nM | CC1(Nc2ncc3nc(Nc4ccc(Cl)c(C(F)(F)F)c4)n(C4CCNCC4)c3n2)CCCC1 [Cpd 90, N8-(4-chloro-3-(trifluoromethyl)phenyl)-N2-(1-methylcyclopentyl)-9-(piperidin-4-yl)-9H-purine-2,8-diamine] | – |
| 100 to 200 nM | CC1(Nc2ncc3nc(Nc4ccc(C(F)(F)F)cc4)n(C4CCNCC4)c3n2)CCOCC1 [Cpd 15, N2-(4-methyltetrahydro-2H-pyran-4-yl)-9-(piperidin-4-yl)-N8-(4-(trifluoromethyl)phenyl)-9H-purine-2,8-diamine] | – |
| < 100 nM | CC1(Nc2ncc3nc(Nc4cc(F)cc(Cl)c4)n(C4CCNCC4)c3n2)CCOCC1 [Cpd 56, N8-(3-chloro-5-fluorophenyl)-N2-(4-methyltetrahydro-2H-pyran-4-yl)-9-(piperidin-4-yl)-9H-purine-2,8-diamine] | – |
| < 100 nM | CN1CCC(n2c(Nc3ccc(Cl)c(Cl)c3)nc3cnc(NC(C)(C)C)nc32)CC1 [Cpd 36, N2-tert-butyl-N8-(3,4-dichlorophenyl)-9-(1-methylpiperidin-4-yl)-9H-purine-2,8-diamine] | – |
| < 100 nM | CC(C)(C)Nc1ncc2nc(Nc3cc(Cl)cc(Cl)c3)n(C3CCNCC3)c2n1 [Cpd 20, N2-tert-butyl-N8-(3,5-dichlorophenyl)-9-(piperidin-4-yl)-9H-purine-2,8-diamine] | – |
| 100 to 200 nM | FC(F)(F)c1cc(Cl)cc(Nc2nc3cnc(NC4CCOCC4)nc3n2C2CCNCC2)c1 [Cpd 51, N8-(3-chloro-5-(trifluoromethyl)phenyl)-9-(piperidin-4-yl)-N2-(tetrahydro-2H-pyran-4-yl)-9H-purine-2,8-diamine] | – |
| < 100 nM | CC(C)Nc1ncc2nc(Nc3ccc(Cl)c(Cl)c3)n(C3CCNCC3)c2n1 [Cpd 65, N8-(3,4-dichlorophenyl)-N2-isopropyl-9-(piperidin-4-yl)-9H-purine-2,8-diamine] | – |
| < 100 nM | CC1(Nc2ncc3nc(Nc4cc(Cl)cc(C(F)(F)F)c4)n(C4CCNCC4)c3n2)CCCC1 [Cpd 68, N8-(3-chloro-5-(trifluoromethyl)phenyl)-N2-(1-methylcyclopentyl)-9-(piperidin-4-yl)-9H-purine-2,8-diamine] | – |
| < 100 nM | CCN1CCC(n2c(Nc3ccc(Cl)c(Cl)c3)nc3cnc(NC(C)(C)C)nc32)CC1 [Cpd 37, N2-tert-butyl-N8-(3,4-dichlorophenyl)-9-(1-ethylpiperidin-4-yl)-9H-purine-2,8-diamine] | – |
| < 100 nM | CC1(Nc2ncc3nc(Nc4cc(Cl)cc(C(F)(F)F)c4)n(C4CCNCC4)c3n2)CCC1 [Cpd 69, N8-(3-chloro-5-(trifluoromethyl)phenyl)-N2-(1-methylcyclobutyl)-9-(piperidin-4-yl)-9H-purine-2,8-diamine] | – |
| 100 to 200 nM | CC(C)(C)Nc1ncc2nc(Nc3ccc(Cl)cc3)n(C3CCNCC3)c2n1 [Cpd 7, N2-tert-butyl-N8-(4-chlorophenyl)-9-(piperidin-4-yl)-9H-purine-2,8-diamine] | – |
| < 100 nM | CC1(Nc2ncc3nc(Nc4cc(Cl)cc(Cl)c4)n(C4CCNCC4)c3n2)CC1 [Cpd 41, N8-(3,5-dichlorophenyl)-N2-(1-methylcyclopropyl)-9-(piperidin-4-yl)-9H-purine-2,8-diamine] | – |
| < 100 nM | CC1(Nc2ncc3nc(Nc4cc(F)cc(Cl)c4)n(C4CCNCC4)c3n2)CC1 [Cpd 64, N8-(3-chloro-5-fluorophenyl)-N2-(1-methylcyclopropyl)-9-(piperidin-4-yl)-9H-purine-2,8-diamine] | – |
| < 100 nM | CC1(Nc2ncc3nc(Nc4cc(Cl)cc(Cl)c4)n(C4CCNCC4)c3n2)CCOCC1 [Cpd 61, N8-(3,5-dichlorophenyl)-N2-(4-methyltetrahydro-2H-pyran-4-yl)-9-(piperidin-4-yl)-9H-purine-2,8-diamine] | – |
